Assay results published in patent US20220408724A1, “METHOD FOR CONTROLLING METABOLISM OF BRANCHED FATTY ACID” (KAO CORPORATION, priority 2019, published 2022).

Tests used:
Format in all cases: cell-based
[1] = system: Moraxella osloensis; experiment: Examination example: measurement of viable bacterial count
Method: (§1) After culture on fabric prepared in the same manner as in the above (1), 9 mL of an LP diluent (manufactured by NIHON PHARMACEUTICAL CO., LTD.) was added, and the extraction of the bacteria was carried out under ultrasound for 10 minutes. The extraction liquid was poured and mixed to an SCD-LP agar medium (NIHON PHARMACEUTICAL CO., LTD.), and culture was thereafter carried out at 37° C.; for a day. The number of colonies obtained on each piece of the fabric was counted, and a common logarithm value thereof was measured as the viable bacterial count. […] In addition, the […], the more the viable bacterial count of the microorganism is maintained.

[2] = system: Moraxella osloensis; experiment: Examination example: suppression of metabolite 4-methyl-3-hexenoic acid, components (a) and (b)/(b′)
Method: (§2) After culture on fabric prepared in the same manner as in the above (1), 3 ml of methanol was added, and extraction was carried out under ultrasonic irradiation for 30 minutes (20° C.). The extraction liquid was mixed with (a 1000 ppm methanol solution of) an ADAM reagent of Funakoshi Co., Ltd. at 1:1 (volume ratio) and left overnight under room temperature and dark place conditions. After that, 4-methyl-3-hexenoic acid as a metabolite from 14-methylhexadecanoic acid was quantified by HPLC. The quantification conditions are as follows.
Eluent: acetonitrile 61% (v/v), water 39% (v/v) Column temperature: 40° C. Sample injection volume: 10 μL Flow rate: 1.0 mL/min
The production amount of 4-methyl-3-hexenoic acid after culture on the fabric to which the metabolism controlling agent was added was quantified, and the ratio of the production amount to that of 4-methyl-3-hexenoic acid in the case of adding no metabolism controlling agent (control) was calculated as a metabolite suppression rate (%). The higher a numerical value thereof is, the more the metabolism is suppressed. Note that the metabolite suppression rate was determined by the following formula. In references 1-1, 2-1, 3-1 and 4-1, which are controls, the metabolite suppression rate is 0%.
Metabolite suppression rate(%)=100×[(D−C)/D] • C: production amount of metabolite of reference or examination example (μg/fabric g) • D: production amount of metabolite of control (μg/fabric g)

[3] = system: Moraxella osloensis; experiment: Examination example: suppression of metabolism of 14-methylhexadecanoic acid, components (a) and (b)/(b′); details: for Metabolism of branched fatty acid: Residual amount (μg/fabric g): 14-methylhexadecanoic acid
Method: The suppression of metabolism of 14-methylhexadecanoic acid by bacteria of the genus Moraxella and the suppression of a metabolite therefrom were tested in the following manner.
Moraxella osloensis (strain isolated from clothing) was precultured on an SCD-LP agar medium (NIHON PHARMACEUTICAL CO., LTD.) at 37° C.; for 24 hours, and a bacterial suspension of 10^6 (CFU/ml) was prepared by using an NB liquid medium (Difco) diluted to 1/20 with ion exchange water.
A methanol solution in which 14-methylhexadecanoic acid (SIGMA-ALDRICH) was dissolved was added dropwise to 3 cm×3 cm pieces of sterilized plain-weave cotton fabric to make it adhered to the fabric. The adhesion amount of 14-methylhexadecanoic acid was set to 10 μg per piece of the plain-weave cotton fabric (100 μg/fabric g). Further, a methanol solution in which component (a) was dissolved, and then, a methanol solution in which component (b) or (b′) was dissolved were added dropwise to the fabric to which 14-methylhexadecanoic acid adhered, and it was thereafter dried for an hour. This fabric was placed in a sterilized screw tube bottle No. 3 (Maruemu Corporation) and 100 μl of the bacterial suspension was inoculated thereto, and culture was carried out under 37° C.; conditions for 21 hours.
(§3) 3 ml of methanol was added to the screw tube bottle after culture, and extraction was carried out under ultrasonic irradiation for 30 minutes (20° C.). The extraction liquid was mixed with a (trimethylsilyl)diazomethane hexane solution (FUJIFILM Wako Pure Chemical Corporation) at 9:1 (volume ratio) and left overnight under room temperature and dark place conditions. After that, 14-methylhexadecanoic acid remaining on the fabric was quantified by GC. The quantification conditions for GC are as follows. • GC: Agilent 6890N • GC column: Agilent DB-1 30 m×250 μm×0.25 μm • Temperature rise condition: 50° C. (held for 3 minutes)-(10° C./min)-300° C. (held for 5 minutes) • Sample injection volume: 1 μl • Split ratio: 1:12 • Detector: FID
(§4) The residual amount of 14-methylhexadecanoic acid after culture on the fabric to which each metabolism controlling agent was added was quantified, and the ratio of the residual amount to that of 14-methylhexadecanoic acid in the case of adding no metabolism controlling agent (control) was calculated as a metabolism suppression rate (%). The higher a numerical value thereof is, the more the metabolism is suppressed. Note that the metabolism suppression rate was determined by the following formula:
Metabolism suppression rate(%)=[1−(100−A)/(100−B)]×100 • A: residual amount of 14-methylhexadecanoic acid of reference or examination example (μg/fabric g) • B: residual amount of 14-methylhexadecanoic acid of control (μg/fabric g)
A control is an example in which none of component (a), (b) or (b′) is added, and references 1-1, 2-1, 3-1 and 4-1 qualify as this (the same applies hereinafter). In these controls, the metabolism suppression rate is 0′.

[4] = system: Micrococcus aloeverae; experiment: Suppression of metabolism of 14-methylhexadecanoic acid on cotton fabric; details: agent 250 μg/fabric g
Method: A methanol solution in which 14-methylhexadecanoic acid (SIGMA-ALDRICH) was dissolved was added dropwise to 3 cm×3 cm pieces of sterilized plain-weave cotton fabric to make it adhered to the fabric. The adhesion amount of 14-methylhexadecanoic acid was set to 10 μg per piece of the plain-weave cotton fabric (100 μg/fabric g).
Further, a methanol solution in which each metabolism controlling agent was dissolved was prepared and added dropwise to the fabric to which 14-methylhexadecanoic acid adhered, and it was thereafter dried for an hour. This fabric was placed in a sterilized screw tube bottle No. 3 (Maruemu Corporation) and 100 μl of the bacterial suspension was inoculated thereto, and culture was carried out under 37° C.; conditions for 21 hours.
as §3, with “7890A” for “6890N”
as §4, with “the” for “each”
Metabolism suppression rate(%)=[1−(100−A)/(100−B)]×100 • A: residual amount of 14-methylhexadecanoic acid of example or comparative example (μg/fabric g) • B: residual amount of 14-methylhexadecanoic acid of control (μg/fabric g)
(§5) The metabolism of 14-methylhexadecanoic acid by bacteria of the genus Micrococcus was tested in the same manner as in example 1.
(§6) In this example, Micrococcus aloeverae (strain isolated from clothing) was used as a microorganism.
(§7) Further, in this example, a bacterial suspension of 10^7 (CFU/ml) prepared by using an SCD liquid medium (NIHON PHARMACEUTICAL CO., LTD.) diluted to 1/10 with ion exchange water was used as a bacterial suspension.
(§8) Note that, in this example, C12OH (1-dodecanol) was used as the metabolism controlling agent.

[5] = system: Micrococcus aloeverae; experiment: Measurement of viable bacterial count on fabric; details: agent 250 μg/fabric g
Method: as §1, §5, §6, §7, §8

[6] = system: Micrococcus aloeverae; experiment: Suppression of metabolite 2-methylbutanoic acid from 14-methylhexadecanoic acid; details: agent 250 μg/fabric g
Method: as §2
The production amount of 4-methyl-3-hexenoic acid after culture on the fabric to which each metabolism controlling agent was added was quantified, and the ratio of the production amount to that of 4-methyl-3-hexenoic acid in the case of adding no metabolism controlling agent (control) was calculated as a metabolite suppression rate (%). The higher a numerical value thereof is, the more the metabolism is suppressed. Note that the metabolite suppression rate was determined by the following formula:
Metabolite suppression rate(%)=100×[(D−C)/D] • C: production amount of metabolite of example or comparative example (μg/fabric g) • D: production amount of metabolite of control (μg/fabric g)
as §5, §6, §7
Further, in this example, 2-methylbutanoic acid was quantified as a metabolite from 14-methylhexadecanoic acid, and the metabolite suppression rate was determined in the same manner as in example 1.
as §8

Structure (SMILES)	Viable bacterial count (Log (cfu/fabric cm^2)) ([1]; single agent 2 μg/fabric g)	Viable bacterial count (Log (cfu/fabric cm^2)) ([1]; single agent 5 μg/fabric g)	Product of metabolism of branched fatty acid: Metabolite suppression rate (%) ([2]; single agent 2 μg/fabric g)	Product of metabolism of branched fatty acid: Production amount (μg/fabric g) ([2]; single agent 2 μg/fabric g)	Product of metabolism of branched fatty acid: Metabolite suppression rate (%) ([2]; single agent 5 μg/fabric g)	Product of metabolism of branched fatty acid: Production amount (μg/fabric g) ([2]; single agent 5 μg/fabric g)	Metabolism of branched fatty acid: Residual amount (μg/fabric g) ([3]; single agent 2 μg/fabric g)	Metabolism of branched fatty acid: Residual amount (μg/fabric g) ([3]; single agent 5 μg/fabric g)	Metabolism of branched fatty acid: Metabolism suppression rate (%) ([3]; single agent 2 μg/fabric g)	Metabolism of branched fatty acid: Metabolism suppression rate (%) ([3]; single agent 5 μg/fabric g)	Viable bacterial count (Log (cfu/fabric cm^2)) ([1]; single agent 1 μg/fabric g)	Product of metabolism of branched fatty acid: Metabolite suppression rate (%) ([2]; single agent 1 μg/fabric g)	Product of metabolism of branched fatty acid: Production amount (μg/fabric g) ([2]; single agent 1 μg/fabric g)	Metabolism of branched fatty acid: Residual amount (μg/fabric g) ([3]; single agent 1 μg/fabric g)	Metabolism of branched fatty acid: Metabolism suppression rate (%) ([3]; single agent 1 μg/fabric g)	further results
N#CC(C#N)=NNc1cccc(Cl)c1 [CCCP, carbonylcyanide-m-chlorophenylhydrazone]	6.1 Log (cfu/fabric cm^2)	5.5 Log (cfu/fabric cm^2)	25%	3.3 μg/fabric g	36%	2.8 μg/fabric g	44 μg/fabric g	56 μg/fabric g	8%	28%						
C/C=C/C/C=C/CCC(=O)[C@H]1O[C@H]1C(N)=O [Cerulenin, [2R,3S]-2,3-epoxy-4-oxo-7,10-trans,trans-dodecanoic acid amide]		6.1 Log (cfu/fabric cm^2)			2%	4.3 μg/fabric g		39 μg/fabric g		0%						Viable bacterial count (Log (cfu/fabric cm^2)) ([1]; single agent 10 μg/fabric g): 6.3 Log (cfu/fabric cm^2); Viable bacterial count (Log (cfu/fabric cm^2)) ([1]; single agent 20 μg/fabric g): 6.3 Log (cfu/fabric cm^2); Product of metabolism of branched fatty acid: Metabolite suppression rate (%) ([2]; single agent 10 μg/fabric g): 9%; Product of metabolism of branched fatty acid: Production amount (μg/fabric g) ([2]; single agent 10 μg/fabric g): 4.0 μg/fabric g; Product of metabolism of branched fatty acid: Metabolite suppression rate (%) ([2]; single agent 20 μg/fabric g): 11%; Product of metabolism of branched fatty acid: Production amount (μg/fabric g) ([2]; single agent 20 μg/fabric g): 3.9 μg/fabric g; Metabolism of branched fatty acid: Residual amount (μg/fabric g) ([3]; single agent 10 μg/fabric g): 41 μg/fabric g; Metabolism of branched fatty acid: Residual amount (μg/fabric g) ([3]; single agent 20 μg/fabric g): 48 μg/fabric g; Metabolism of branched fatty acid: Metabolism suppression rate (%) ([3]; single agent 10 μg/fabric g): 3%; Metabolism of branched fatty acid: Metabolism suppression rate (%) ([3]; single agent 20 μg/fabric g): 15%
Oc1cc(Cl)ccc1Oc1ccc(Cl)cc1 [Diclosan, 4-4′-dichloro-2-hydroxydiphenyl ether]	6.0 Log (cfu/fabric cm^2)	5.1 Log (cfu/fabric cm^2)	14%	3.8 μg/fabric g	41%	2.6 μg/fabric g	46 μg/fabric g	56 μg/fabric g	11%	27%	6.2 Log (cfu/fabric cm^2)	5%	4.2 μg/fabric g	43 μg/fabric g	7%	
CCCCCCCCCCCCOCCOCCOCCOCCOCCO [Example C12E5, pentaethylene glycol mono-1-dodecyl ether, reference compound]																Metabolism suppression rate (%) [4]: −3%; Bacterial count (Log (cfu/fabric cm^2)) [5]: 6.6 Log (cfu/fabric cm^2); Metabolite suppression rate (%) [6]: 6%
Oc1cc(Cl)ccc1Oc1ccc(Cl)cc1Cl [Triclosan, 2,4,4′-trichloro-2′-hydroxydiphenyl ether]	6.0 Log (cfu/fabric cm^2)		7%	4.1 μg/fabric g			44 μg/fabric g		8%		6.2 Log (cfu/fabric cm^2)	5%	4.2 μg/fabric g	38 μg/fabric g	−2%	Viable bacterial count (Log (cfu/fabric cm^2)) ([1]; single agent 0.5 μg/fabric g): 6.2 Log (cfu/fabric cm^2); Metabolism of branched fatty acid: Residual amount (μg/fabric g) ([3]; single agent 0.5 μg/fabric g): 43 μg/fabric g; Metabolism of branched fatty acid: Metabolism suppression rate (%) ([3]; single agent 0.5 μg/fabric g): 6%
